In brackets after ≈: the same amount, converted by molar mass. Where a name gives a salt, the structure may show the parent alone.
Assays:
[1] = tested on: 17 highly resistant MRSA strains; assay: In vitro activity: minimum inhibitory concentration (MIC) by the agar dilution method in Mueller Hinton agar, 17 highly resistant MRSA strains; format: cell-based, Methicillin resistant Staphylococcus aureus (MRSA); settings: inoculum =10^5 CFU/spot
Experimental: In vitro activity was determined by minimum inhibitory concentration (MIC) by the agar dilution method in Mueller Hinton agar inoculum =10^5 CFU/spot.

MRSA = settings: alone; in words; cited from earlier work
β-lactamase = settings: in words; cited from earlier work
[2] = tested on: Gram-positive and Gram negative pathogens; settings: carbapenems alone; in words; cited from earlier work

Compound | MIC50 ([1]; Table 1, substance alone) [mg/L] | MIC90 ([1]; Table 1, substance alone) [mg/L] | MIC50 ([1]; Table 2, substance alone) [mg/L] | MIC90 ([1]; Table 2, substance alone) [mg/L] | range of MIC ([1]; Table 1, substance alone) [mg/L] | activity against MRSA (MRSA) | β-lactamase inhibition (β-lactamase) | spectrum of antibacterial activity [2] | range of MIC ([1]; Table 2, substance alone) [mg/L]
Cl.O=C(CSc1ccccc1)N[C@@H]1C(=O)N2C(C(=O)O)=C(/C=C3\CCN([C@@H]4CCNC4)C3=O)CS[C@H]12 [Ex. 11, (E)-(6R,7R)-8-Oxo-3-[(R)-2-oxo-[1,3']bipyrrolidinyl-3-ylidenemethyl]-7-(2-phenylsulfanyl-acetylamino)-5-thia-1-aza-bicyclo[4.2.0]oct-2-ene-2-carboxylic acid hydrochloride (1:1)] | 16 | > 16 | 16 | > 16 |  |  |  |  | 
O=C(C[n+]1ccc(CN2CC/C(=C\C3=C(C(=O)[O-])N4C(=O)[C@@H](NC(=O)CSc5ccccc5)[C@H]4SC3)C2=O)cc1)Nc1ccc(O)c(F)c1 [Ex. 9, (E)-(6R,7R)-3-[1-[1-[(3-Fluoro-4-hydroxy-phenylcarbamoyl)-methyl]-pyridin-1-ium-4-ylmethyl]-2-oxo-pyrrolidin-3-ylidenemethyl]-8-oxo-7-(2-phenylsulfanyl-acetylamino)-5-thia-1-aza-bicyclo[4.2.0]oct-2-ene-2-carboxylate] | 16 (≈ 22.7 µM) | 16 (≈ 22.7 µM) | 16 (≈ 22.7 µM) | 16 (≈ 22.7 µM) |  |  |  |  | 
CO/N=C(\C(=O)N[C@@H]1C(=O)N2C(C(=O)O)=C(COC(C)=O)CS[C@H]12)c1csc(N)n1 [Cefotaxime, reference compound] | > 64 | > 64 |  |  | > 64 |  |  |  | 
O=C(CSc1nc2ccccc2s1)N[C@@H]1C(=O)N2C(C(=O)O)=C(/C=C3\CCN(CC4CC4)C3=O)CS[C@H]12 [Ex. 3, (E)-(6R,7R)-7-[2-(Benzothiazol-2-ylsulfanyl)-acetylamino]-3-(1-cyclopropyl-methyl-2-oxo-pyrrolidin-3-ylidenemethyl)-8-oxo-5-thia-1-aza-bicyclo[4.2.0]-oct-2-ene-2-carboxylic acid] | 16 (≈ 28.7 µM) | > 16 |  |  |  |  |  |  | 
O=C(CSc1cc(Cl)c(Cl)cc1Cl)N[C@@H]1C(=O)N2C(C(=O)O)=C(/C=C3\CCN(Cc4cccc(O)c4)C3=O)CS[C@H]12 [Ex. 6, (E)-(6R,7R)-3-[1-(3-Hydroxy-benzyl)-2-oxo-pyrrolidin-3-ylidenemethyl]-8-oxo-7-[2-(2,4,5-trichloro-phenylsulfanyl)-acetylamino]-5-thia-1-aza-bicyclo[4.2.0]oct-2-ene-2-carboxylic acid] | 16 (≈ 24.4 µM) | > 16 | 16 (≈ 24.4 µM) | > 16 |  |  |  |  | 
O=C(CSc1ccc2ccccc2c1)N[C@@H]1C(=O)N2C(C(=O)[O-])=C(/C=C3\CCN(c4ccc(O)cc4)C3=O)CS[C@H]12.[Na+] [Ex. 13, (E)-(6R,7R)-3-[1-(4-Hydroxy-phenyl)-2-oxo-pyrrolidin-3-ylidenemethyl]-7-[2-(naphthalene-2-ylsulfanyl)-acetylamino]-8-oxo-5-thia-1-aza-bicyclo[4.2.0]oct-2-ene-2-carboxylic acid sodium salt (1:1)] | 16 | > 16 |  |  |  |  |  |  | 
CCN1CCN(C(=O)N[C@@H](C(=O)N[C@@H]2C(=O)N3C(C(=O)O)=C(CSc4nnnn4C)CS[C@H]23)c2ccc(O)cc2)C(=O)C1=O [Cefoperazone, reference compound] | > 64 | > 64 |  |  | > 64 |  |  |  | 
CN(C)CCn1nnnc1SCC1=C(C(=O)O)N2C(=O)[C@@H](NC(=O)Cc3csc(N)n3)[C@H]2SC1 [Cefotiam, reference compound] | > 64 | > 64 |  |  | > 64 |  |  |  | 
O=C(CSc1cc(Cl)c(Cl)cc1Cl)N[C@@H]1C(=O)N2C(C(=O)O)=C(/C=C3\CCN(C4CCNC4)C3=O)CS[C@H]12 (mixture of isomers) [Ex. 8, Mixture of (E)-(6R,7R)-8-oxo-3-[(R)- and-[(S)-2-oxo-[1,3']bipyrrolidinyl-3-ylidenemethyl]-8-oxo-7-[2-(2,4,5-trichloro-phenylsulfanyl)-acetylamino]-5-thia-1-aza-bicyclo[4.2.0]oct-2-ene-2-carboxylic acid hydrochloride] | > 16 | > 16 | > 16 | > 16 |  |  |  |  | 
O=C(C[n+]1ccc(CN2CC/C(=C\C3=C(C(=O)[O-])N4C(=O)[C@@H](NC(=O)CSc5nc6ccccc6s5)[C@H]4SC3)C2=O)cc1)Nc1ccc(O)cc1 [Ex. 2, (E)-(6R,7R)-3-[1-[1-[(4-Hydroxy-phenylcarbamoyl)-methyl]-pyridin-1-ium-4-ylmethyl]-2-oxo-pyrrolidin-3-ylidenemethyl]-8-oxo-7-[2-(1-benzothiazol-2-ylsulfanyl)-acetylamino]-5-thia-1-aza-bicyclo[4.2.0]oct-2-ene-2-carboxylate] | > 16 | > 16 | > 16 | > 16 |  |  |  |  | 
O=C(C[n+]1ccc(CN2CC/C(=C\C3=C(C(=O)[O-])N4C(=O)[C@@H](NC(=O)CSc5cc(Cl)c(Cl)cc5Cl)[C@H]4SC3)C2=O)cc1)Nc1ccc(O)cc1 [Ex. 1, (E)-(6R,7R)-3-[1-[1-[(4-Hydroxy-phenylcarbamoyl)-methyl]-pyridin-1-ium-4-ylmethyl]-2-oxo-pyrrolidin-3-ylidenemethyl]-8-oxo-7-[2-(2,4,5-trichloro-phenylsulfanyl)-acetylamino]-5-thia-1-aza-bicyclo[4.2.0]oct-2-ene-2-carboxylate] | > 16 | > 16 | > 16 | > 16 |  |  |  |  | 
C[C@@H](O)[C@H]1C(=O)N2C(C(=O)O)=C(S[C@@H]3CN[C@H](C(=O)N(C)C)C3)[C@H](C)[C@H]12 [Meropenem] | > 16 | > 16 |  |  |  | do not have good activity against MRSA | good β-lactamase inhibitors | broad spectrum of antibacterial activity | 
O=C(C[n+]1ccc(CN2CC/C(=C\C3=C(C(=O)[O-])N4C(=O)[C@@H](NC(=O)CSc5cc(Cl)ccc5Cl)[C@H]4SC3)C2=O)cc1)Nc1ccc(O)c(F)c1 [Ex. 10] | > 16 | > 16 | > 16 | > 16 |  |  |  |  | 
O=C(CSc1ccc2ccccc2c1)N[C@@H]1C(=O)N2C(C(=O)O)=C(/C=C3\CCN(C4CC4)C3=O)CS[C@H]12.c1c[nH]cn1 [Ex. 12, (E)-(6R,7R)-3-(1-Cyclopropyl-2-oxo-pyrrolidin-3-ylidenemethyl)-7-[2-(naphthalen-2-ylsulfanyl)-acetylamino]-8-oxo-5-thia-1-aza-bicyclo[4.2.0]oct-2-ene-2-carboxylic acid imidazole salt (1:1)] | 16 | > 16 | 16 | > 16 |  |  |  |  | 
C[C@@H](O)[C@H]1C(=O)N2C(C(=O)O)=C(SCCN=CN)C[C@H]12 [Imipenem] | > 16 | > 16 |  |  |  | do not have good activity against MRSA | good β-lactamase inhibitors | broad spectrum of antibacterial activity | 
CO/N=C(\C(=O)N[C@@H]1C(=O)N2C(C(=O)O)=C(CSc3nc(=O)c(=O)[nH]n3C)CS[C@H]12)c1csc(N)n1 [Ceftriaxone, reference compound] | > 64 | > 64 |  |  | > 64 |  |  |  | 
Cc1cc(=O)c(C(=O)N[C@@H](C(=O)N[C@@H]2C(=O)N3C(C(=O)O)=C(CSc4nnnn4C)CS[C@H]23)c2ccc(O)cc2)c[nH]1 [Cefpiramid, reference compound] | > 64 | > 64 |  |  | > 64 |  |  |  | 
NS(=O)(=O)c1ccc(CN2CC/C(=C\C3=C(C(=O)O)N4C(=O)[C@@H](NC(=O)CSc5ccccc5)[C@H]4SC3)C2=O)cc1 [Ex. 14] | 16 (≈ 26 µM) | > 16 |  |  |  |  |  |  | 
O=C(C[n+]1ccc(CN2CC/C(=C\C3=C(C(=O)[O-])N4C(=O)[C@@H](NC(=O)CSc5ccncc5)[C@H]4SC3)C2=O)cc1)Nc1ccc(O)cc1 [Ex. 4, (E)-(6R,7R)-3-[1-[1-[(4-Hydroxy-phenylcarbamoyl)-methyl]-pyridin-1-ium-4-ylmethyl]-2-oxo-pyrrolidin-3-ylidenemethyl]-8-oxo-7-[2-(pyridin-4-yl-sulfanyl)-acetylamino]-5-thia-1-aza-bicyclo[4.2.0]oct-2-ene-2-carboxylate] | > 16 | > 16 | > 16 | > 16 |  |  |  |  | 
C[C@]1(/C=C\C#N)[C@H](C(=O)[O-])N2C(=O)C[C@H]2S1(=O)=O.[Na+] [compound B, sodium-(Z)-(2S,3S ,R)-3-(2-cyanoethenyl)-3-methyl-4,4,7-trioxo-4-thia-1-aza-bicyclo[3.2.0]heptane-2-carboxylate, reference compound] |  |  | > 16 | > 16 |  |  |  |  | > 16
O=C(C[n+]1ccc(CN2CC/C(=C\C3=C(C(=O)[O-])N4C(=O)[C@@H](NC(=O)CSc5ccc6ccccc6c5)[C@H]4SC3)C2=O)cc1)Nc1ccc(O)c(F)c1 [Ex. 5, (E)-(6R,7R)-3-[1-[1-[(3-Fluoro-4-hydroxy-phenylcarbamoyl)-methyl]-pyridin-1-ium-4-ylmethyl]-2-oxo-pyrrolidin-3-ylidenemethyl]-7-[2-(naphthalen-2-ylsulfanyl)-acetylamino]-8-oxo-5-thia-1-aza-bicyclo[4.2.0]oct-2-ene-2-carboxylat] | > 16 | > 16 | > 16 | > 16 |  |  |  |  | 
O=C(CSc1ccc2ccccc2c1)N[C@@H]1C(=O)N2C(C(=O)O)=C(/C=C3\CCN(Cc4cccc(O)c4)C3=O)CS[C@H]12 [Ex. 7] | 16 (≈ 26.6 µM) | 16 (≈ 26.6 µM) | 16 (≈ 26.6 µM) | 16 (≈ 26.6 µM) | 2 to 16 |  |  |  | 2 to 16

Source: patent publication US6150350A, “Antimicrobial compositions” (Hoffman-la Roche Inc., priority 1997, dated 2000)
